Measured values: publication PMC6037852, “Design of Diarylheptanoid Derivatives as Dual Inhibitors Against Class IIa Histone Deacetylase and β-amyloid Aggregation” (Frontiers in Pharmacology, 2018)

What was measured:
SH-SY5Y cells = conditions: 100 μM; ref Luchtman et al., 2013; cited from earlier work
[1] = test system: primary rat mesencephalic neurons; design: method as in Luchtman et al., 2013; conditions: 100 μM; ref Luchtman et al., 2013; cited from earlier work
Aβ1-42 = biological target: T1, Aβ1-42 (Homo sapiens, UniProt P05067); experiment: Inhibition of Aβ1-42 self-aggregation, thioflavin-T (ThT) fluorescence assay; assay type: biochemical; conditions: 24 h; for IC50: read-out: Beta-Amyloid Aggregation IC50; for inhibition at 10 µM: single concentration of 10 μM, read-out: Beta-Amyloid Aggregation Inhibition (%)
T1 construct: Aβ1-42 peptides were purchased from Kelowna International Scientific Inc; purchased Kelowna International Scientific Inc
Method: Inhibition of Aβ1-42 self-aggregation was measured by thioflavin-T (ThT) fluorescence assay ([Hudson et al., 2009]). Aβ1-42 peptides were purchased from Kelowna International Scientific Inc. To avoid Aβ1-42 self-aggregation before the start of the experiment, Aβ1-42 peptides were dissolved in hexafluoroisopropanol (HFIP) to a concentration of 1 mM. The clear solution containing the dissolved peptide was then aliquoted in micro centrifuge tube. The solution was evaporated under vacuum to remove HFIP to give monomeric Aβ1-42. The monomeric Aβ1-42 was dissolved in NaOH(aq) (60 mM) to give a stock solution (1 mM). The Aβ1-42 stock solution was diluted with 50 mM phosphate buffer (containing 0.15 M NaCl, pH 7.4) before use. Fresh ThT stock solution was prepared by dissolving ThT (Sigma, T3516) in phosphate buffer and filtrated through […] Nylon syringe filter. The ThT stock solution and 400 mM ethylenediaminetetraacetic acid (EDTA) were diluted into the phosphate buffer to generate the working solution as background. A mixture of working solution (ThT final concentration: 10 μM), Aβ1-42 stock solution (Aβ1-42 final concentration: 10 μM) and the tested compounds were incubated on BioShake iQ ThermoMixer (37°C, 700 rpm) for 24 h. Fluorescence was measured by Victor 2X microplate spectrophotometer (excitation λ = 440 nm, emission λ = 486 nm), and adapted for 96-well microtiter plates. The fluorescence intensities were recorded and the percent inhibition due to the presence of the inhibitors were calculated by the following formula: (1 - IFi/IFc) × 100% where IFi and IFc were the fluorescence intensities obtained for Aβ1-42 in the presence and in the absence of inhibitors after subtracting the background, respectively. The IC50 values were calculated by the linear regression model of the data. All experiments were performed in triplicate.

T1 sequence (P05067 672-713 limits assumed): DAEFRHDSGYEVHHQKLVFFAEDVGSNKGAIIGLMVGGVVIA

Row | SMILES | Cell viability of SH-SY5Y cells (SH-SY5Y cells) | Viability of primary rat mesencephalic neurons [1] | IC50 (Aβ1-42) | inhibition at 10 µM (Aβ1-42)
1 | C[n+]1ccc(-c2ccccc2)cc1.[I-] [1-methyl-4-phenylpyridinium iodide] | 80% | roughly 75% |  | 
2 | O=c1c(O)c(-c2ccc(O)cc2O)oc2cc(O)cc(O)c12 [Morin, morin, reference compound] |  |  | 8.8 ± 0.7 µM | 56.9 ± 5.9%
3 | O=C(CCCCCCC(=O)Nc1ccccc1)NO [SAHA, suberoylanilide hydroxamic acid, reference compound] |  |  | > 10 µM | -13.3 ± 1.8%
